{"source": "paper PMC12218921", "about": "“An adaptive peptide-binding site in ubiquitin receptor hRpn13 revealed by structural studies” (Nature Communications, 2025)", "target": "T1, hRpn13_ΔMTT (Homo sapiens, UniProt Q16186)", "T1 construct": "recombinant plasmid of hRpn13 Pru (1–150) cloned into the pRSET vector; GST (N, cleaved yes); residual Gly-Ser (^cG-^dS) left after cleavage; made in house; host or cells: Escherichia coli BL21 (DE3); pGEX-4T-1 plasmid synthesized by GenScript (Addgene 237412)", "T1 sequence (Q16186 4-150, stated change not applied)": "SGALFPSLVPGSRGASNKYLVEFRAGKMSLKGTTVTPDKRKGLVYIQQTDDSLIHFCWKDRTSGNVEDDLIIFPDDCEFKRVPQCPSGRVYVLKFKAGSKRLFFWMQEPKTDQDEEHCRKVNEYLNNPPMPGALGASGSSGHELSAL", "assay": "1H-15N HSQC NMR titration / chemical shift perturbation (CSP), 0.1 mM 15N-labeled hRpn13_ΔMTT with unlabeled peptide", "assay_type": "binding", "conditions": "20-fold molar excess peptide", "description": "The similar spectral effects by adding ENT or ENT_M1S is readily apparent by quantifying and plotting the shifting across the Pru amino acid sequence (Supplementary Fig. 10b, c).\nAll ^1H-^15N HSQC experiments were acquired on samples dissolved in NMR buffer (20 mM sodium phosphate, pH 6.5, 50 mM NaCl, 1 mM TCEP, 10% D2O) unless specified, in which case 2 mM DTT replaced TCEP. The samples were purified in DTT-containing buffer and then exchanged into NMR buffer by using Zeba Protein Desalting columns (Thermo Fisher Scientific). The pH was measured and adjusted to 6.5. All NMR experiments were performed at 25 °C on a Bruker Advance 600 MHz spectrometer equipped with a cryogenically cooled probe. The data were processed by NMRpipe[46] (version 11.5) and spectra visualized and analyzed with NMR-FAM-SPARKY[47] (version 3.190) by using previous chemical shift assignments[12],[23] and NMRbox[48]. The amide nitrogen and hydrogen chemical shift perturbations (CSP) were mapped for each amino acid according to Eq. 1.1 CSP=0.2ΔδN2+ΔδH2\nΔδH, change in amide proton value (in parts per million); ΔδN, change in amide nitrogen value (in parts per million).\nSupplementary Figure 9: 2D NMR experiments indicate ENT binding to hRpn13 Pru. a) ^1H-^15N HSQC spectrum of 0.1 mM ^15N-labeled hRpn13 (1-150, black) or hRpn13_ΔMTT (green). Select residues are labeled with amino acids in the Pru helix, proteasome binding region, and termini in blue, purple, and orange, respectively. Arrows indicate direction of shifting. b, c) ^1H-^15N HSQC spectra of 0.1 mM of ^15N-labeled hRpn13_ΔMTT alone (black) or with ENT present at equimolar (red), 2-fold (orange), 5-fold (yellow), 10-fold (green), 15-fold (blue), or 20-fold (purple) molar excess. […] All spectra were acquired at 600 MHz and 25°C in 20 mM sodium phosphate, pH 6.5, 100 mM NaCl, 1 mM TCEP, 10% D2O. ppm, part per million.", "data": [{"substance": "GPGSSTT [ENT_M1S, ENT M1 replaced with serine]", "values": [{"measurement": "CSP A6", "value": 0.001673}, {"measurement": "CSP A28", "value": 0.004472}, {"measurement": "CSP A100", "value": 0.001095}, {"measurement": "CSP A136", "value": 0.001}, {"measurement": "CSP A139", "value": 0.001342}, {"measurement": "CSP A149", "value": 0.001342}, {"measurement": "CSP C60", "value": 0.004494}, {"measurement": "CSP C80", "value": 0.0004472}, {"measurement": "CSP C88", "value": 0.005727}, {"measurement": "CSP C121", "value": 0.01167}, {"measurement": "CSP D41", "value": 0.0008944}, {"measurement": "CSP D53", "value": 0.002049}, {"measurement": "CSP D54", "value": 0.003347}, {"measurement": "CSP D63", "value": 0.004919}, {"measurement": "CSP D71", "value": 0.004147}, {"measurement": "CSP D72", "value": 0.004583}, {"measurement": "CSP D78", "value": 0.00502}, {"measurement": "CSP D79", "value": 0.004472}, {"measurement": "CSP D115", "value": 0.005385}, {"measurement": "CSP D117", "value": 0.02256}, {"measurement": "CSP E25", "value": 0.004472}, {"measurement": "CSP E70", "value": 0.002683}, {"measurement": "CSP E81", "value": 0.003715}, {"measurement": "CSP E111", "value": 0.01001}, {"measurement": "CSP E118", "value": 0.03156}, {"measurement": "CSP E119", "value": 0.0177}, {"measurement": "CSP E146", "value": 0.005177}, {"measurement": "CSP F8", "value": 0.0004472}, {"measurement": "CSP F26", "value": 0.01613}, {"measurement": "CSP F59", "value": 0.004583}, {"measurement": "CSP F76", "value": 0.008012}, {"measurement": "CSP F82", "value": 0.002683}, {"measurement": "CSP F98", "value": 0.005459}, {"measurement": "CSP F106", "value": 0.003715}, {"measurement": "CSP F107", "value": 0.002049}, {"measurement": "CSP G5", "value": 0}, {"measurement": "CSP G17", "value": 0.002236}, {"measurement": "CSP G29", "value": 0.0008944}, {"measurement": "CSP G45", "value": 0.003715}, {"measurement": "CSP G67", "value": 0.005899}, {"measurement": "CSP G91", "value": 0.001673}, {"measurement": "CSP G101", "value": 0.001789}, {"measurement": "CSP G135", "value": 0.002049}, {"measurement": "CSP G138", "value": 0.002049}, {"measurement": "CSP G141", "value": 0.001789}, {"measurement": "CSP G144", "value": 0.0008944}, {"measurement": "CSP H58", "value": 0.00743}, {"measurement": "CSP H120", "value": 0.04026}, {"measurement": "CSP H145", "value": 0.04954}, {"measurement": "CSP I49", "value": 0.003286}, {"measurement": "CSP I57", "value": 0.003286}, {"measurement": "CSP I75", "value": 0}, {"measurement": "CSP K21", "value": 0.001095}, {"measurement": "CSP K30", "value": 0.007668}, {"measurement": "CSP K34", "value": 0.002049}, {"measurement": "CSP K42", "value": 0.002191}, {"measurement": "CSP K62", "value": 0.001789}, {"measurement": "CSP K83", "value": 0.00634}, {"measurement": "CSP K97", "value": 0.001}, {"measurement": "CSP K99", "value": 0.002049}, {"measurement": "CSP K103", "value": 0.001673}, {"measurement": "CSP K113", "value": 0.004472}, {"measurement": "CSP K123", "value": 0.00743}, {"measurement": "CSP L7", "value": 0.001}, {"measurement": "CSP L11", "value": 0.0008944}, {"measurement": "CSP L23", "value": 0.001095}, {"measurement": "CSP L33", "value": 0.002408}, {"measurement": "CSP L46", "value": 0.002049}, {"measurement": "CSP L56", "value": 0.004099}, {"measurement": "CSP L73", "value": 0.002049}, {"measurement": "CSP L96", "value": 0.0004472}, {"measurement": "CSP L105", "value": 0.001095}, {"measurement": "CSP L128", "value": 0.003131}, {"measurement": "CSP L137", "value": 0.001673}, {"measurement": "CSP L147", "value": 0.004494}, {"measurement": "CSP L150", "value": 0.001673}, {"measurement": "CSP M31", "value": 0}, {"measurement": "CSP M109", "value": 0.003286}, {"measurement": "CSP M133", "value": 0.002}, {"measurement": "CSP N20", "value": 0}, {"measurement": "CSP N68", "value": 0.001789}, {"measurement": "CSP N125", "value": 0.003347}, {"measurement": "CSP N129", "value": 0.003}, {"measurement": "CSP N130", "value": 0.002683}, {"measurement": "CSP Q50", "value": 0.001095}, {"measurement": "CSP Q51", "value": 0.001}, {"measurement": "CSP Q87", "value": 0.008295}, {"measurement": "CSP R16", "value": 0}, {"measurement": "CSP R27", "value": 0.008112}, {"measurement": "CSP R43", "value": 0.0008944}, {"measurement": "CSP R64", "value": 0.003}, {"measurement": "CSP R84", "value": 0}, {"measurement": "CSP R92 backbone", "value": 0.002449}, {"measurement": "CSP R92 sidechain", "value": 0.01312}, {"measurement": "CSP R104", "value": 0.004099}, {"measurement": "CSP R122", "value": 0.006768}, {"measurement": "CSP S4", "value": 0.003715}, {"measurement": "CSP S10", "value": 0.001}, {"measurement": "CSP S15", "value": 0.002236}, {"measurement": "CSP S19", "value": 0.002049}, {"measurement": "CSP S32", "value": 0.001095}, {"measurement": "CSP S55", "value": 0.001342}, {"measurement": "CSP S66", "value": 0.001}, {"measurement": "CSP S102", "value": 0.001342}, {"measurement": "CSP S140", "value": 0.001095}, {"measurement": "CSP S142", "value": 0.001342}, {"measurement": "CSP S143", "value": 0.002049}, {"measurement": "CSP S148", "value": 0.0004472}, {"measurement": "CSP T36", "value": 0.001342}, {"measurement": "CSP T37", "value": 0.002191}, {"measurement": "CSP T39", "value": 0.002683}, {"measurement": "CSP T52", "value": 0.001095}, {"measurement": "CSP T65", "value": 0.001342}, {"measurement": "CSP T114", "value": 0.01524}, {"measurement": "CSP V12", "value": 0.002049}, {"measurement": "CSP V24", "value": 0}, {"measurement": "CSP V47", "value": 0.002683}, {"measurement": "CSP V69", "value": 0.003715}, {"measurement": "CSP V93", "value": 0.006542}, {"measurement": "CSP V95", "value": 0.003131}, {"measurement": "CSP V124", "value": 0.007759}, {"measurement": "CSP W61", "value": 0.009165}, {"measurement": "CSP W108", "value": 0.004025}, {"measurement": "CSP Y22", "value": 0.001095}, {"measurement": "CSP Y48", "value": 0.002864}, {"measurement": "CSP Y94", "value": 0.002449}, {"measurement": "CSP Y127", "value": 0.004382}]}]}
